≈ marks a conversion by molar mass, not a printed value.
Tests used:
THP-1 [1] = assay: Antiinflammatory activity in human PMA-activated THP1 cells assessed as inhibition of LPS-induced TNFalpha production at 10 uM incubated for 30 mins prior to LPS-challenge measured after 24 hrs by ELISA relative to control; type: functional
THP-1 [2] = assay: Antiinflammatory activity in human PMA-activated THP1 cells assessed as inhibition of LPS-induced IL6 production at 10 uM incubated for 30 mins prior to LPS-challenge measured after 24 hrs by ELISA relative to control; type: functional
Staphylococcus aureus [3] = assay: Antibacterial activity against Staphylococcus aureus MTCC 96 after 24 hrs by modified agar well diffusion method; type: functional; conditions: MTCC 96, 24 h
Bacillus subtilis [4] = assay: Antibacterial activity against Bacillus subtilis MTCC 441 after 24 hrs by modified agar well diffusion method; type: functional; conditions: MTCC 441, 24 h
Escherichia coli [5] = assay: Antibacterial activity against Escherichia coli MTCC 443 after 24 hrs by modified agar well diffusion method; type: functional; conditions: MTCC 443, 24 h
Salmonella typhimurium [6] = assay: Antibacterial activity against Salmonella typhimurium MTCC 98 after 24 hrs by modified agar well diffusion method; type: functional, Salmonella enterica subsp. enterica serovar Typhimurium; conditions: Salmonella enterica, MTCC 98, 24 h
Candida albicans [7] = assay: Antifungal activity against Candida albicans MTCC 227 after 2 to 3 days by modified agar well diffusion method; type: functional
Aspergillus niger [8] = assay: Antifungal activity against Aspergillus niger MTCC 281 after 2 to 3 days by modified agar well diffusion method; type: functional
Fusarium solani [9] = assay: Antifungal activity against Fusarium solani MTCC 350 after 2 to 3 days by modified agar well diffusion method; type: functional
Aspergillus flavus [10] = assay: Antifungal activity against Aspergillus flavus MTCC 277 after 2 to 3 days by modified agar well diffusion method; type: functional
Staphylococcus aureus [11] = assay: Ratio of ciprofloxacin MIC to compound MIC for Staphylococcus aureus MTCC 96; type: functional
Bacillus subtilis [12] = assay: Ratio of ciprofloxacin MIC to compound MIC for Bacillus subtilis MTCC 441; type: functional
Escherichia coli [13] = assay: Ratio of ciprofloxacin MIC to compound MIC for Escherichia coli MTCC 443; type: functional
Salmonella typhimurium [14] = assay: Ratio of ciprofloxacin MIC to compound MIC for Salmonella typhimurium MTCC 98; type: functional, Salmonella enterica subsp. enterica serovar Typhimurium
Candida albicans [15] = assay: Ratio of miconazole MIC to compound MIC for Candida albicans MTCC 227; type: functional
Aspergillus niger [16] = assay: Ratio of miconazole MIC to compound MIC for Aspergillus niger MTCC 281; type: functional
Fusarium solani [17] = assay: Ratio of miconazole MIC to compound MIC for Fusarium solani MTCC 350; type: functional
Aspergillus flavus [18] = assay: Ratio of miconazole MIC to compound MIC for Aspergillus flavus MTCC 277; type: functional
THP-1 [19] = assay: Antiinflammatory activity in human PMA-activated THP1 cells assessed as inhibition of LPS-induced TNFalpha production at 1 uM incubated for 30 mins prior to LPS-challenge measured after 24 hrs by ELISA relative to control; type: functional
THP-1 [20] = assay: Antiinflammatory activity in human PMA-activated THP1 cells assessed as inhibition of LPS-induced IL6 production at 1 uM incubated for 30 mins prior to LPS-challenge measured after 24 hrs by ELISA relative to control; type: functional

| Compound | inhibition at 10 µM (THP-1 [1]) [%] | inhibition at 10 µM (THP-1 [2]) [%] | MIC (Staphylococcus aureus [3]) [µg/mL] | MIC (Bacillus subtilis [4]) [µg/mL] | MIC (Escherichia coli [5]) [µg/mL] | MIC (Salmonella typhimurium [6]) [µg/mL] | MIC (Candida albicans [7]) [µg/mL] | MIC (Aspergillus niger [8]) [µg/mL] | MIC (Fusarium solani [9]) [µg/mL] | MIC (Aspergillus flavus [10]) [µg/mL] | Ratio (Staphylococcus aureus [11]) | Ratio (Bacillus subtilis [12]) | Ratio (Escherichia coli [13]) | Ratio (Salmonella typhimurium [14]) | Ratio (Candida albicans [15]) | Ratio (Aspergillus niger [16]) | Ratio (Fusarium solani [17]) | Ratio (Aspergillus flavus [18]) | inhibition at 1 µM (THP-1 [19]) [%] | inhibition at 1 µM (THP-1 [20]) [%] |
| --- | --- | --- | --- | --- | --- | --- | --- | --- | --- | --- | --- | --- | --- | --- | --- | --- | --- | --- | --- | --- |
| COc1cc(OC)c2c(=O)cc(CNC3CCN(Cc4ccccc4)CC3)oc2c1 | 20 | 35 | 10 (≈ 24.5 µM) | 10 (≈ 24.5 µM) | 10 (≈ 24.5 µM) | 15 (≈ 36.7 µM) | 10 (≈ 24.5 µM) | 10 (≈ 24.5 µM) | 15 (≈ 36.7 µM) | 10 (≈ 24.5 µM) | 2 | 2 | 2 | 2 | 2 | 2 | 2 | 2 | – | – |
| COc1ccc2oc(N3CCN(c4ccccc4)CC3)cc(=O)c2c1 | 45 | 60 | 75 (≈ 223 µM) | 50 (≈ 149 µM) | 80 (≈ 238 µM) | 80 (≈ 238 µM) | 90 (≈ 268 µM) | 85 (≈ 253 µM) | 80 (≈ 238 µM) | 95 (≈ 282 µM) | – | – | – | – | – | – | – | – | – | – |
| COc1ccc2oc(N3CCN(c4ccccc4)CC3C#N)cc(=O)c2c1 (stereo unspecified) | 10 | 0 | 40 (≈ 111 µM) | 30 (≈ 83 µM) | 45 (≈ 125 µM) | 50 (≈ 138 µM) | 15 (≈ 41.5 µM) | 10 (≈ 27.7 µM) | 15 (≈ 41.5 µM) | 30 (≈ 83 µM) | 2 | 2 | 2 | 2 | 2 | 2 | 2 | 2 | – | – |
| COc1ccc2oc(N3CCN(c4ncccn4)CC3)cc(=O)c2c1 | 82 | 87 | 80 (≈ 236 µM) | 65 (≈ 192 µM) | 80 (≈ 236 µM) | 80 (≈ 236 µM) | 85 (≈ 251 µM) | 70 (≈ 207 µM) | 95 (≈ 281 µM) | 85 (≈ 251 µM) | – | – | – | – | – | – | – | – | – | – |
| COc1ccc2oc(N3CCN(Cc4ccccc4)CC3)cc(=O)c2c1 | 0 | 0 | 70 (≈ 200 µM) | 55 (≈ 157 µM) | 65 (≈ 185 µM) | 65 (≈ 185 µM) | 55 (≈ 157 µM) | 30 (≈ 85.6 µM) | 45 (≈ 128 µM) | 65 (≈ 185 µM) | – | – | – | – | – | – | – | – | – | – |
| CCN1CCN(c2cc(=O)c3cc(OC)ccc3o2)CC1 | 30 | 40 | 90 (≈ 312 µM) | 80 (≈ 277 µM) | – | – | 75 (≈ 260 µM) | 60 (≈ 208 µM) | 70 (≈ 243 µM) | 70 (≈ 243 µM) | – | – | – | – | – | – | – | – | – | – |
| COc1ccc2oc(N3CCN(C)CC3)cc(=O)c2c1 | 25 | 35 | 50 (≈ 182 µM) | 45 (≈ 164 µM) | 40 (≈ 146 µM) | 65 (≈ 237 µM) | 90 (≈ 328 µM) | 90 (≈ 328 µM) | – | – | – | – | – | – | – | – | – | – | – | – |
| COc1ccc(N2CCN(c3cc(=O)c4cc(OC)ccc4o3)CC2)cc1 | 79 | 83 | 60 (≈ 164 µM) | 45 (≈ 123 µM) | 75 (≈ 205 µM) | 80 (≈ 218 µM) | 95 (≈ 259 µM) | 75 (≈ 205 µM) | 85 (≈ 232 µM) | 90 (≈ 246 µM) | – | – | – | – | – | – | – | – | – | – |
| COc1ccc2oc(NCCN3CCCC3)cc(=O)c2c1 | 5 | 20 | 20 (≈ 69.4 µM) | 10 (≈ 34.7 µM) | 15 (≈ 52 µM) | 10 (≈ 34.7 µM) | 10 (≈ 34.7 µM) | 10 (≈ 34.7 µM) | 10 (≈ 34.7 µM) | 15 (≈ 52 µM) | 2 | 2 | 2 | 2 | 2 | 2 | 2 | 2 | – | – |
| COc1ccc2oc(NC3CCN(Cc4ccccc4)CC3)cc(=O)c2c1 | 10 | 15 | 10 (≈ 27.4 µM) | 10 (≈ 27.4 µM) | 10 (≈ 27.4 µM) | 10 (≈ 27.4 µM) | 15 (≈ 41.2 µM) | 10 (≈ 27.4 µM) | 10 (≈ 27.4 µM) | 15 (≈ 41.2 µM) | 2 | 2 | 2 | 2 | 2 | 2 | 2 | 2 | – | – |
| COc1cc(OC)c2c(=O)cc(CN3CCN(c4ccccc4)CC3)oc2c1 | 45 | 50 | 90 (≈ 237 µM) | 90 (≈ 237 µM) | 90 (≈ 237 µM) | 90 (≈ 237 µM) | 80 (≈ 210 µM) | 90 (≈ 237 µM) | 95 (≈ 250 µM) | 85 (≈ 223 µM) | – | – | – | – | – | – | – | – | – | – |
| COc1ccc(N2CCN(Cc3cc(=O)c4c(OC)cc(OC)cc4o3)CC2)cc1 | 85 | 93 | 65 (≈ 158 µM) | 40 (≈ 97.4 µM) | 70 (≈ 171 µM) | 65 (≈ 158 µM) | 95 (≈ 231 µM) | 80 (≈ 195 µM) | 75 (≈ 183 µM) | 85 (≈ 207 µM) | – | – | – | – | – | – | – | – | – | – |
| COc1cc(OC)c2c(=O)cc(CN3CCN(c4ccccn4)CC3)oc2c1 | 65 | 70 | – | 85 (≈ 223 µM) | – | – | 85 (≈ 223 µM) | 95 (≈ 249 µM) | 90 (≈ 236 µM) | 95 (≈ 249 µM) | – | – | – | – | – | – | – | – | – | – |
| COc1cc(OC)c2c(=O)cc(CN3CCN(c4ncccn4)CC3)oc2c1 | 87 | 93 | – | – | 90 (≈ 235 µM) | 90 (≈ 235 µM) | 90 (≈ 235 µM) | 75 (≈ 196 µM) | 65 (≈ 170 µM) | 95 (≈ 248 µM) | – | – | – | – | – | – | – | – | – | – |
| COc1cc(OC)c2c(=O)cc(CN3CCN(C(C)=O)CC3)oc2c1 | 0 | 0 | 80 (≈ 231 µM) | 60 (≈ 173 µM) | 95 (≈ 274 µM) | 90 (≈ 260 µM) | 75 (≈ 217 µM) | 60 (≈ 173 µM) | 85 (≈ 245 µM) | 90 (≈ 260 µM) | – | – | – | – | – | – | – | – | – | – |
| COc1cc(OC)c2c(=O)cc(CN3CCN(C)CC3)oc2c1 | 10 | 0 | 60 (≈ 188 µM) | 45 (≈ 141 µM) | 90 (≈ 283 µM) | 90 (≈ 283 µM) | 70 (≈ 220 µM) | 55 (≈ 173 µM) | 75 (≈ 236 µM) | 75 (≈ 236 µM) | – | – | – | – | – | – | – | – | – | – |
| CCN1CCN(Cc2cc(=O)c3c(OC)cc(OC)cc3o2)CC1 | 20 | 30 | 75 (≈ 226 µM) | 65 (≈ 196 µM) | 70 (≈ 211 µM) | 70 (≈ 211 µM) | 55 (≈ 165 µM) | 35 (≈ 105 µM) | 45 (≈ 135 µM) | 60 (≈ 181 µM) | – | – | – | – | – | – | – | – | – | – |
| COc1cc(OC)c2c(=O)cc(CN3CCOCC3)oc2c1 | 85 | 91 | – | 90 (≈ 295 µM) | – | – | 85 (≈ 278 µM) | 80 (≈ 262 µM) | 85 (≈ 278 µM) | 90 (≈ 295 µM) | – | – | – | – | – | – | – | – | – | – |
| COc1cc(OC)c2c(=O)cc(CN3CCN(C/C=C/c4ccccc4)CC3)oc2c1 | 10 | 25 | 20 (≈ 47.6 µM) | 10 (≈ 23.8 µM) | 15 (≈ 35.7 µM) | 10 (≈ 23.8 µM) | 90 (≈ 214 µM) | – | – | – | 2 | 2 | 2 | 2 | 2 | 2 | 2 | 2 | – | – |
| COc1ccc2oc(N3CCOCC3)cc(=O)c2c1 | 80 | 84 | 95 (≈ 364 µM) | 75 (≈ 287 µM) | 90 (≈ 344 µM) | 90 (≈ 344 µM) | – | 90 (≈ 344 µM) | – | – | – | – | – | – | – | – | – | – | – | – |
| O=C(O)c1cn(C2CC2)c2cc(N3CCNCC3)c(F)cc2c1=O [CIPROFLOXACIN] | – | – | – | 25 (≈ 75.4 µM) | 15 (≈ 45.3 µM) | 25 (≈ 75.4 µM) | – | – | – | – | – | – | – | – | – | – | – | – | – | – |
| C[C@@H]1C[C@H]2[C@@H]3CCC4=CC(=O)C=C[C@]4(C)[C@@]3(F)[C@@H](O)C[C@]2(C)[C@@]1(O)C(=O)CO [DEXAMETHASONE] | – | – | – | – | – | – | – | – | – | – | – | – | – | – | – | – | – | – | 71 | 84 |
| Clc1ccc(COC(Cn2ccnc2)c2ccc(Cl)cc2Cl)c(Cl)c1 (stereo unspecified) [MICONAZOLE] | – | – | – | – | – | – | 25 (≈ 60.1 µM) | 20 (≈ 48.1 µM) | 15 (≈ 36 µM) | 20 (≈ 48.1 µM) | – | – | – | – | – | – | – | – | – | – |
